Read-outs that look alike come from different tables or passages of the source.
Tests used:
[1] = Plasma concentrations in volunteers after one tablet of racemate or (S)-enantiomer; format: in vivo, Menschen; settings: human, po; for concentration at 4 h: read-out: Konzentrationen nach 4 Stunden; for concentration at 5 h: read-out: Konzentrationen nach 5 Stunden; for concentration at 6 h: read-out: Konzentrationen nach 6 Stunden; for Cmax: read-out: Maximal-Konzentrationen
Method: (§1) Abbildung 1 gibt hierbei die Plasma-Konzentration von AG-EE 623 ZW und AG-EE 624 ZW nach 1,0 mg i.v. AG-EE 388 ZW und Abbildung 2 die Plasma-Konzentration von AG-EE 623 ZW und AG-EE 624 ZW nach 1,0 mg p.o. (Lösung) AG-EE 388 ZW jeweils an 12 freiwilligen männlichen Probanden wieder. […] Dies wirkt sich z.B. bei Applikation einer Tablette mit 2 mg AG-EE 388 ZW bzw. einer Tablette mit 1 mg AG-EE 623 ZW an 12 bzw. 6 Probanden so aus, daß die Maximal-Konzentrationen 84 ± 25 bzw. 28 ± 18 ng/ml sowie die Konzentrationen nach 4 Stunden 19 ± 8 bzw. 0,7 ± 1,0 ng/ml, nach 5 Stunden 13 ± 6 bzw. 0,3 ± 0,7 ng/ml und nach 6 Stunden 10 ± 6 bzw. 0,3 ± 0,7 ng/ml betragen.

[2] = tested on: weiblichen Ratten; test: Blood-glucose-lowering effect in female rats; format: in vivo, Ratte; settings: for blutzuckersenkende Wirkung: female rats
Excerpt: Die beiden Enantiomeren dieser Verbindung, nämlich (S)(+)-2-Äthoxy-4-[N-[1-(2-piperidino-phenyl)-3-methyl-1-butyl] aminocarbonylmethyl]-benzoesäure (Code-Nr.: AG-EE 623 ZW) und (R)(-)-2-Äthoxy-4-[N-[1-(2-piperidino-phenyl)-3-methyl-1-butyl]aminocarbonylmethyl]-benzoesäure (Code-Nr.: AG-EE 624 ZW), wurden auf ihre blutzuckersenkende Wirkung an weiblichen Ratten geprüft.

[3] = set-up: species or system Menschen; settings: in vivo
Method: as §1

[4] = format: in vivo, Menschen
Excerpt: Auf Grund dieser Ergebnisse an der Ratte erscheint für den Menschen die ausschließliche Verwendung von AG-EE 623 ZW geboten, wodurch die Dosis im Vergleich zur AG-EE 388 ZW-Dosis um 50 % reduziert werden kann. […] Darüber hinaus wurde jedoch bei den Human-Studien gefunden, daß AG-EE 623 ZW überraschende pharmakokinetische Eigenschaften aufweist, die auf Grund der AG-EE 388 ZW-Daten nicht vorhersehbar waren. AG-EE 623 ZW zeigt somit überraschende therapeutische Vorteile gegenüber dem Racemat AG-EE 388 ZW.

[5] = tested on: Ratten; test: Acute oral toxicity in rats, single dose, 14 days observation; format: in vivo
[6] = tablet with 2 mg AG-EE 388 ZW, 12 volunteers
[7] = tablet with 1 mg AG-EE 623 ZW, 6 volunteers

concentration at 4 h [1, 6] [ng/mL] | concentration at 5 h [1, 6] [ng/mL] | concentration at 6 h [1, 6] [ng/mL] | Cmax [1, 6] [ng/mL] | SMILES | blutzuckersenkende Wirkung [2] | Dauer der Wirkung (Wirkung hält an) ([2]; rat) [Stunden] | concentration at 4 h [1, 7] [ng/mL] | concentration at 5 h [1, 7] [ng/mL] | concentration at 6 h [1, 7] [ng/mL] | Cmax [1, 7] [ng/mL] | Elimination (Plasma-Konzentration) [3] | Eintritt der blutzuckersenkenden Wirkung ([4]; human) | Wirkungsdauer ([4]; human) | Abfall der Spiegel ([4]; in vivo) | Plasmaspiegel in Relation zur erzielten Blutzuckersenkung ([4]; in vivo) | Toxizität ([5]; rats, 1000 mg/kg p.o.) | verstorbene Tiere ([5]; single 1000 mg/kg p.o., suspension in 1% methylcellulose, 5 male and 5 female rats, 14 days) | Plasma-Konzentrationen nach Racemat-Gabe [3]
19 ± 8 | 13 ± 6 | 10 ± 6 | 84 ± 25 | CCOc1cc(CC(=O)NC(CC(C)C)c2ccccc2N2CCCCC2)ccc1C(=O)O (racemic) [AG-EE 388 ZW, 2-Äthoxy-4-[N-[1-(2-piperidino-phenyl)-3-methyl-1-butyl]aminocarbonylmethyl]-benzoesäure, reference compound] | – | – | – | – | – | – | – | – | – | – | – | – | – | –
– | – | – | – | CCOc1cc(CC(=O)N[C@@H](CC(C)C)c2ccccc2N2CCCCC2)ccc1C(=O)O [AG-EE 623 ZW, (S)(+)-2-Äthoxy-4-[N-[1-(2-piperidino-phenyl)-3-methyl-1-butyl]aminocarbonylmethyl]-benzoesäure] | wirksame Enantiomere | > 6 | 0.7 | 0.3 | 0.3 | 28 ± 18 | wesentlich schneller als das unwirksame Enantiomere, AG-EE 624 ZW, eliminiert | rascher ein als nach AG-EE 388 ZW-Gabe | relativ lange Wirkungsdauer | fallen rascher gegen null als die AG-EE 388 ZW-Spiegel | wesentlich niedrigere Plasmaspiegel | praktisch untoxisch | kein Tier | –
– | – | – | – | CCOc1cc(CC(=O)N[C@H](CC(C)C)c2ccccc2N2CCCCC2)ccc1C(=O)O [AG-EE 624 ZW, (R)(-)-2-Äthoxy-4-[N-[1-(2-piperidino-phenyl)-3-methyl-1-butyl]aminocarbonylmethyl]-benzoesäure] | unwirksame Enantiomere | – | – | – | – | – | – | – | – | – | – | – | – | in unerwartet höheren Maximal- und Dauer-Spiegeln anwesend

— patent EP0589874B1, “USE OF (S)(+)-2-ETHOXY-4-[N-[1-(2-PIPERIDINOPHENYL)-3-METHYL-1-BUTYL]AMINOCARBONYLMETHYL]BENZOIC ACID FOR THE PREPARATION OF A LONGLASTING ANTIDIABETIC MEDICAMENT” (Boehringer Ingelheim Pharma KG, priority 1991, dated 1993)
